Results: patent US5869507A, “Azatyrosine analogues” (Wang; Hui-Po, priority 1997, dated 1999)
Several values for one entry are separate records, joined by “and”; a condition that tells them apart may be missing. Identical values can stand only once. Like-named read-outs stand apart in the source and are kept apart here.

Columns and labels:
[1] = test system: wild type NIH 3T3 cells; experiment: Growth inhibition of wild type NIH 3T3 cells (modified MTT assay, 48 h); type: cell-based; conditions: Mus musculus, NIH3T3, mean ± SD of 3-5 experiments
Protocol: (§1) Inhibition on the Growth of wild type and ras-transformed NIH 3T3 cells
(§2) The compounds of formula (I) were screened on wild type and ras-transformedNIH 3T3 cells for inhibitory activity. Screening was carried out in 96-well plate and the cells, with a density of 1500-2500 cells/well, were cultured in Dulbecco's modified Eagle's medium containing 10% fetal bovine serum at 37° C. under an atmosphere of 7.5% CO2 in air. Growth curve for each cell line was established. The DMSO solution of each compound was incubated with the cell for 48 hours. Procedure of Hansen's MTT assay method was modified for estimating the cell number (Hansen, B. M., Nielson, S. E., Berg, K. J. Immunol. Methods 1989, 119, 203.). The absorption of generated formazan's blue at l570 nm was recorded with ELISA reader. The number of surviving cells was determined from a calibration curve derived by correlating the absorption to the cell number determined from a hemacytometer. At least three experiments were carried out for each compound and IC50 was calculated using sigmoidal regression (Parellada, J., Guinea, M. J. Nat. Prod., 1995, 58, 823.). SI, the selectivity of growth inhibition of each test compound, was defined as the ratio of IC50 against wild type to IC50 against ras-transformed cell lines.

[2] = test system: ras-transformed NIH 3T3 cells; experiment: Growth inhibition of ras-transformed NIH 3T3 cells (modified MTT assay, 48 h); type: cell-based; conditions: for Selective toxicity (SI, IC50 wild type/IC50 ras-transformed): IC50 wild type/IC50 ras-transformed cells; for IC50: Mus musculus, NIH3T3; for Relative activity: Ratio of the IC50 of azatyrosine to the IC50 of test compound
Protocol: as §1, §2

[3] = test system: wild type cells; conditions: cited from earlier work
[4] = test system: ras-transformed tumor cells; conditions: relatively high concentrations up to; cited from earlier work
[5] = test system: revertant clone on nude mice; conditions: some of the revertant clone; cited from earlier work
[6] = test system: NIH 3T3 cells transformed by c-Ha-ras, c-Ki-ras, N-ras, or c-raf oncogene; conditions: cited from earlier work
[7] = test system: mice harboring a normal c-Ha-ras gene; conditions: 7,12-dimethylbenz[a]anthracene or methylnitrosourea-induced; cited from earlier work
[8] = ras-transformed NIH 3T3, 48 hours, mean ± SD of 3-5 experiments, read-out: IC50 ras-transformed

**Q.** What does the source list for `CC(C)(C)OC(=O)NC(Cc1ccc(OCc2ccccc2)cn1)C(N)=O` (stereo not drawn) [Compound 7, 3-(5-benzyoxypyridin-2-yl)-2-t-butoxylcarbonylamino NH3]?
**A.** IC50 [1]: 1716 ± 10.4 µM; Selective toxicity (SI, IC50 wild type/IC50 ras-transformed) [2]: 23.5; IC50 [2, 8]: 73.1 ± 41.8 µM; Relative activity ([2]; ras-transformed NIH 3T3): 103

**Q.** For `CCCNC(=O)C(Cc1ccc(OCc2ccccc2)cn1)NC(=O)OC(C)(C)C` (stereo not drawn) [Compound 8, propyl 3-(5-benzyoxypyridin-2-yl)-2-t-butoxylcarbonylamino propanamide], which IC50 [1] is on record?
**A.** 989 ± 707 µM

**Q.** And the “Selective toxicity (SI, IC50 wild type/IC50 ras-transformed)” value (“Selective toxicity” for short) [2]?
**A.** 28.4

**Q.** What about the IC50 [2, 8] of the same compound?
**A.** 34.1 ± 0.8 µM

**Q.** And the Relative activity ([2]; ras-transformed NIH 3T3)?
**A.** 217

**Q.** With `C=CCNC(=O)C(Cc1ccc(OCc2ccccc2)cn1)NC(=O)OC(C)(C)C` (stereo not drawn) [Compound 9] as the compound, how does the IC50 [1] read?
**A.** 213 ± 112 µM

**Q.** What about the “Selective toxicity” value [2] of the same compound?
**A.** 2.9

**Q.** And the IC50 [2, 8]?
**A.** 74.1 ± 15.2 µM

**Q.** And the Relative activity ([2]; ras-transformed NIH 3T3)?
**A.** 102

**Q.** For `C#CCNC(=O)C(Cc1ccc(OCc2ccccc2)cn1)NC(=O)OC(C)(C)C` (stereo not drawn) [Compound 10], which IC50 [1] is on record?
**A.** 410 ± 247 µM

**Q.** And the “Selective toxicity” value [2]?
**A.** 9.0

**Q.** And the IC50 [2, 8]?
**A.** 45.1 ± 1.65 µM

**Q.** What about the Relative activity ([2]; ras-transformed NIH 3T3) of the same compound?
**A.** 165

**Q.** With `CC(C)(C)OC(=O)NC(Cc1ccc(OCc2ccccc2)cn1)C(=O)NC1CC1` (stereo not drawn) [Compound 11] as the compound, how does the IC50 [1] read?
**A.** 1930 ± 899 µM

**Q.** What about the “Selective toxicity” value [2] of the same compound?
**A.** 18.4

**Q.** What about the IC50 [2, 8] of the same compound?
**A.** 104 ± 83.8 µM

**Q.** And the Relative activity ([2]; ras-transformed NIH 3T3)?
**A.** 72

**Q.** Which IC50 [1] does the source give for `CC(C)(C)OC(=O)NC(Cc1ccc(OCc2ccccc2)cn1)C(=O)NC1CCCCC1` (stereo not drawn) [Compound 12, N-cyclohexyl 3-(5-benzyoxypyridin-2-yl)-2-t-butoxylcarbonylaminopropanamide] here?
**A.** 2280 ± 1760 µM

**Q.** What about the “Selective toxicity” value [2] of the same compound?
**A.** 138 and 138.5

**Q.** And the “Selective toxicity” value ([2]; listed as compound 12)?
**A.** 138.5

**Q.** What about the IC50 [2, 8] of the same compound?
**A.** 16.1 ± 2.2 µM

**Q.** And the IC50 ([2]; ras-transformed NIH 3T3, read-out: IC50)?
**A.** 16.5 ± 2.2 µM

**Q.** What about the Relative activity ([2]; ras-transformed NIH 3T3) of the same compound?
**A.** 458

**Q.** What about the “IC50 fold lower than that of azatyrosine” value ([2]; ras-transformed NIH 3T3) of the same compound?
**A.** 458 fold

**Q.** Which IC50 [1] does the source give for `CC(C)(C)OC(=O)NC(Cc1ccc(OCc2ccccc2)cn1)C(=O)N1CCCCC1` (stereo not drawn) [Compound 13] here?
**A.** 74.8 ± 18.7 µM

**Q.** And the “Selective toxicity” value [2]?
**A.** 1.8

**Q.** What about the IC50 [2, 8] of the same compound?
**A.** 42.1 ± 3.9 µM

**Q.** And the Relative activity ([2]; ras-transformed NIH 3T3)?
**A.** 180

**Q.** With `CC(C)(C)OC(=O)NC(Cc1ccc(OCc2ccccc2)cn1)C(=O)N1CCCC1` (stereo not drawn) [Compound 14] as the compound, how does the IC50 [1] read?
**A.** 148 ± 12.5 µM

**Q.** What about the “Selective toxicity” value [2] of the same compound?
**A.** 2.5

**Q.** And the IC50 [2, 8]?
**A.** 59.1 ± 17.8 µM

**Q.** What about the Relative activity ([2]; ras-transformed NIH 3T3) of the same compound?
**A.** 127

**Q.** With `CC(C)(C)OC(=O)NC(Cc1ccc(OCc2ccccc2)cn1)C(=O)N1CCSCC1` (stereo not drawn) [Compound 15] as the compound, how does the IC50 [1] read?
**A.** 154 ± 3.9 µM

**Q.** And the “Selective toxicity” value [2]?
**A.** 3.1

**Q.** And the IC50 [2, 8]?
**A.** 50.1 ± 1.04 µM

**Q.** What about the Relative activity ([2]; ras-transformed NIH 3T3) of the same compound?
**A.** 150

**Q.** Which results are given for `N[C@@H](Cc1ccc(O)cn1)C(=O)O` [azatyrosine, L-b-(5-hydroxy-2-pyridyl)alanine]?
**A.** effect on growth of wild type cells [3]: essentially no effect; IC50 [1]: 10800 ± 472 µM; concentration necessary for the activity [4]: 1 to 2 mM; Selective toxicity (SI, IC50 wild type/IC50 ras-transformed) [2]: 1.4; IC50 [2, 8]: 7550 ± 418 µM; tumorigenicity of revertant clones [5]: complete loss of tumorigenicity; reversion of surviving transformed cells ([6]; azatyrosine-treated transformed cells that survived): reverted to an apparently normal phenotype; suppression of growth of transformed NIH 3T3 cells [6]: suppress the growth; inhibition of induced carcinogenesis [7]: inhibits
